The source of these data is patent publication US5929124A, “Antimicrobial diterpenes” (priority 1997, dated 1999).

≈ marks a conversion by molar mass, not a printed value. Read-outs that look alike come from different tables or passages of the source.

One data set relates to A. fumigatus. In words: Inhibition of Aspergillus spp. culture (broth microdilution, XTT). The format is cell-based, Aspergillus fumigatus (strain ATCC#8001). The following applies: 48 hours at 37° C. The protocol: (§1) Formulae (i) was isolated as described in Example 1. Plant material was collected in Zimbabwe. A voucher specimen is deposited at the Institute of Pharmacognosy and Phytochemistry, University of Lausanne, Lausanne, Switzerland. Antimicrobial assays are performed by a modification of the broth microdilution susceptibility assay using the tetrazolium salt XTT (Examples 2-6, see summary of results in Table 1 below).
Aspergillus fumigatus (strain ATCC#8001) was subcultured from a refrigerated potato dextrose agar slant (immersed in mineral oil) onto a fresh potato dextrose agar slant. After 72 hours of incubation at 37° C., the slants were filled with 7 mL sterile, cold, distilled water and put on ice for 2 hours. After disrupting the tissue, spores were filtered through sterile gauze using a 30 cc syringe. The resulting mixture was centrifuged for 10 minutes at 2,000 rpm. The supernatant was discarded and the pellet was resuspended in 5 mL sterile, distilled water. […] Growth was assessed spectrophotometrically by measuring the appearance of soluble formazan stain at 450/650 nm using an Emax micro plate reader. Validation of the assay was confirmed by determination of the A. fumigatus minimum inhibitory concentration (MIC) for amphotericin B. MICs were also scored visually.

A further data set relates to C. krusei. In words: Inhibition of Candida spp. culture (broth microdilution, XTT). The format is cell-based, Candida krusei (strain ATCC #90030). The following applies: Pichia kudriavzevii, 22 hours at 35° C. As to the method:
as §1
(§2) Candida albicans (strain ATCC #90028), Candida krusei (strain ATCC #90030), and Torulopsis (Candida) glabrata (strain ATCC #6258) were subcultured from cryopreserved stocks onto sabourand dextrose agar plates. Blastoconidia were suspended into RPMI-MOPS (media) and inoculated (500 CFW/well) into 96-well plates containing test compounds in a final volume of 100 μL/well. After 22 hours at 35° C., 25 μL of XTT (2,3-bis(2-methoxy-4-nitro-5-sulfophenyl)-5-[(phenylamino)carbonyl]-2H-tetrazolium hydroxide), (100 μg/mL) with PMS (phenazine methyl sulfate, 5 μM) were added to each well, followed by 2 hours of shaking. Growth was assessed spectrophotometrically by measuring the appearance of soluble formazan stain at 450 nm using an Emax microplate reader.
(Dilution methods test growth across graded concentrations, often in twofold steps.)

Another data set has as its system T. glabrata. The description is as above. It counts as cell-based, Torulopsis (Candida) glabrata (strain ATCC #6258). The following applies: Nakaseomyces glabratus, 22 hours at 35° C. The protocol: as §1, §2
The subject of a further data set is C. albicans. Described as above. The format is cell-based, Candida albicans (strain ATCC #90028). Conditions: for minimum inhibitory concentration (MIC) for known antifungal agents: assay validation, result in words. As to the method: as §1, §2
The test system of another data set is S. aureus. The experiment in a line: Inhibition of Staphylococcus aureus culture. The format is cell-based. The following applies: 24 hours at 35° C. As to the method:
as §1
Strains of Staphylococcus aureus were subcultured from cryopreserved stocks onto sheep blood agar plates (methicillin-sensitive reference strain ATCC #29213. Methicillin-resistant (MRSA) clinical isolate was obtained from Dr. Gary Doern, Director of Clinical Microbiology, University of Massachusetts Medical Center, Worcester, Mass.). Bacteria were suspended in Mueller Hinton broth and inoculated (5×10^4 CFU/well) into 96-well plates containing test compounds in a final volume of 100 μL/well. After 24 hours at 35° C., plates were shaken for 1 minute and turbidity was read manually at 650 nm using a Emax microplate reader (Molecular Devices, Sunnyvale, Calif. The MIC values of vancomycin and gentamicin in this screening assay are determined to be approximately 1 μg/mL and 0.6 μg/mL, respectively, well within the reported ranges (National Committee on Clinical Laboratory Standards Vol. 14, No. 16, 1994, Table 3).

A further data set is described as follows: Vero cell proliferation. It counts as cell-based. Conditions: monkey, vero cells; read-out: IC50 (Vero cell proliferation). The text has this: Formula (ii) compounds are those compounds of formula (I) wherein R13 is --O--bonded to R14 and R14 is --CHORa --, Ra being hydrogen, C1-4 alkyl, or formula (a). Formula (ii) compounds may be obtained according to Example 7. […] In general, inhibition of a microbial infection means inhibiting microbial growth, relative to an untreated control, by at least 30%, and preferably by 50% or 75%. Cytotoxicity assays utilized the same dye as a marker of cell viability.

The test system of a further data set is Epidermophyton floccosum. The experiment in a line: Inhibition of dermatophytes. The format is cell-based. The following applies: E. floccosum, 96 hours, 1 isolate. The protocol: (§3) The in vitro activity of formula (I) against the dermatophytes Trichophyton rubrum, Trichophyton mentagrophytes, and Epidermophyton floccosum was measured. The data were collected after incubating for 96 hours.

Data set [1] has as its system Trichophyton mentagrophytes. In words: Inhibition of dermatophytes. It counts as cell-based. Conditions: T. mentagrophytes, 96 hours, 13 isolates. As to the method:
as §3

The test system of the next data set is Trichophyton rubrum. In words: Inhibition of dermatophytes. The format is cell-based. The following applies: T. rubrum, 96 hours, 10 isolates. As to the method:
as §3

Data set [2] has as its system Candida albicans strain # 64. In words: In vivo efficacy against fluconazole-sensitive candidiasis in mice. The arrangement: species or system ICR mice infected with Candida albicans. The protocol:
Immunocompetent mice (ICR, Sprague-Dawley, Indianapolis, IN) were infected with a pathogenic strain (# 64) of Candida albicans which is sensitive to fluconazole. After 24 hours, dissemination of infection was shown by organ colony counts (kidney, spleen, and liver) greater than 10^5 CFU. Treatment began 24 hours after infection with the indicated dosage once a day for 10 days. One group received 20 mg/kg of the compound administered via oral gavage in 0.1 mL. The test compound was formulated in 40% polyethyleneglycol (MW 400). Another group received 40 mg/kg of th compound, administered as above. A third group received polyethylene glycol, and the last group received fluconazole dosed orally at 40 mg/kg twice a day.
After 30 days the percent survival in the group treated with fluconazole and the group treated with test compound (40 mg per kg body weight, twice a day) was measured. In addition, the organ fungal load was measured at days 1, 10, and 30.

The mark [3] stands for this setting: Candida albicans, 22 hours at 35° C.
Setting [4] is: Staphylococcus aureus, read-out: MIC.

As usually defined, the IC50 is the concentration needed to halve the response being measured. As a reminder, the MIC is the lowest concentration that inhibits growth of the organism. In the case of `CC1=C(CCO)C(=O)C(O)=C2C1=CC(=O)[C@@H]1C(C)(C)CCC[C@@]21C` (relative stereo) [Formula (i), (4bR*,8aR*)-4b,5,6,7,8,8a-hexahydro-4-hydroxy-4b,8,8,1-tetramethyl-2-(2-hydroxy-ethyl) -3,9-phenanthrenedione], the IC50 in the data set on A. fumigatus is 6.49 µg/mL; in the data set with C. krusei, 0.55 µg/mL; with T. glabrata, 0.44 µg/mL; in the data set on C. albicans (setting [3]) it was 0.12 µg/mL. For the same compound, the MIC stood at 6.25 µg/mL against A. fumigatus; 1.56 µg/mL against C. krusei; 1.65 µg/mL with T. glabrata; 0.78 µg/mL in the data set on C. albicans (setting [3]); 1.56 µg/mL in the data set on S. aureus (setting [4]); 4 µg/mL in the data set with Epidermophyton floccosum. In addition, the MIC in data set [1] (read-out: MIC range) was 0.5 to 8 µg/mL; in [1] (read-out: average MIC) it was 2.7 µg/mL; in the data set with Trichophyton rubrum (read-out: MIC range), 2 to 8 µg/mL; with Trichophyton rubrum (read-out: average MIC), 5 µg/mL. Also, the CC50 in the data set “Vero cell proliferation” stood at 12.7 µg/mL.
On to `CC1=C(CCO)C(=O)C(O)=C2C1=CC(=O)[C@H]1C(C)(C)CCC[C@]21C` (relative stereo) [test compound], for which, in [2] (20 and 40 mg/kg oral gavage), the “dose response of the effect” value is “dose-responsive”. Besides, in [2] (after 10 days, either concentration of the test compound, vs mice treated with fluconazole), the “fungal organ burdens in the kidney, liver, and spleen” value was “less than or equal to one half the burdens in the same organs of mice treated with fluconazole”. For the same compound, in [2] (oral gavage once a day for 10 days, vehicle control 7 days, p=0.0018 log rank test), the median survival was found to be 17.5 days.
Consider `Nc1nc(=O)[nH]cc1F` [5-flucytosine], for which, in the data set with C. albicans, the “minimum inhibitory concentration (MIC) for known antifungal agents” value is reported as “within reported ranges”.
On the same count and under the same terms, the value for `C[C@@H]1[C@H](O)[C@@H](C)/C=C/C=C/C=C/C=C/C=C/C=C/C=C/[C@H](O[C@@H]2O[C@H](C)[C@@H](O)[C@H](N)[C@@H]2O)C[C@@H]2O[C@](O)(C[C@@H](O)C[C@@H](O)[C@H](O)CC[C@@H](O)C[C@@H](O)CC(=O)O[C@H]1C)C[C@H](O)[C@H]2C(=O)O` [amphotericin B] was “within reported ranges”; that for `OC(Cn1cncn1)(Cn1cncn1)c1ccc(F)cc1F` [fluconazole] was “within reported ranges”; that for `C[C@@H]([C@H](N)C(=O)N[C@H](C(=O)O)[C@H]1O[C@@H](n2ccc(=O)[nH]c2=O)[C@H](O)[C@@H]1O)[C@H](O)c1ccc(O)cn1` [nikkomycin Z] was “within reported ranges”.
Still for that read-out and setting: to `NC(=O)OC[C@H](O)[C@@H](O)[C@H](N)C(=O)N[C@H](C(=O)O)[C@H]1O[C@@H](n2cc(C(=O)O)c(=O)[nH]c2=O)[C@H](O)[C@@H]1O` [polyoxin D] belongs “within reported ranges”.
As for `CN[C@H](CC(C)C)C(=O)N[C@H]1C(=O)N[C@@H](CC(N)=O)C(=O)N[C@H]2C(=O)N[C@H]3C(=O)N[C@H](C(=O)N[C@H](C(=O)O)c4cc(O)cc(O)c4-c4cc3ccc4O)[C@H](O)c3ccc(c(Cl)c3)Oc3cc2cc(c3O[C@@H]2O[C@H](CO)[C@@H](O)[C@H](O)[C@H]2O[C@H]2C[C@](C)(N)[C@H](O)[C@H](C)O2)Oc2ccc(cc2Cl)[C@H]1O` [vancomycin], in the data set on S. aureus (setting [4]), the MIC is about 1 µg/mL (≈ 0.69 µM).
In the case of gentamicin, the MIC against S. aureus is about 0.6 µg/mL.
